Experimental data taken from ChEMBL document CHEMBL1133433, “Synthesis of a novel class of cdc25A inhibitors from vitamin D3” (Bioorg Med Chem Lett, 2000).

Columns and labels:
[1] = biological target: T1, M-phase inducer phosphatase 1 (Homo sapiens, UniProt P30304); experiment: Concentration required for the inhibitory activity against human Cell division cycle 25A
T1 sequence (P30304 whole entry): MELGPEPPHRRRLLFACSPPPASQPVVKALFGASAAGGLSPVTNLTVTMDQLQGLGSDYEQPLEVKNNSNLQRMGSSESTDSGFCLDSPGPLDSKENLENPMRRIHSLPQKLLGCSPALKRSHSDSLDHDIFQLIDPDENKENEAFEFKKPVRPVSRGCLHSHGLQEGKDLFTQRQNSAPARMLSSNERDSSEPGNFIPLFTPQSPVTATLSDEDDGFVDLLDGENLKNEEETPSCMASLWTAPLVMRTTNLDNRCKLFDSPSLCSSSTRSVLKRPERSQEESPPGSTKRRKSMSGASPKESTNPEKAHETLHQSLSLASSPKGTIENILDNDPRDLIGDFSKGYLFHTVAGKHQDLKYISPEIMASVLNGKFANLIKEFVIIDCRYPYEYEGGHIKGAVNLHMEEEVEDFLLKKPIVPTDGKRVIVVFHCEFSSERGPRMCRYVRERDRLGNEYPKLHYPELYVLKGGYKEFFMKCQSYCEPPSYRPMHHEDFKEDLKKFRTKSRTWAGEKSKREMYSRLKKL

SBC-5 = experiment: Inhibitory concentration required for antitumor activity against SBC-5 cells; type: functional, cell-based; settings: Homo sapiens

Row | Compound | IC50 [1] [µM] | IC50 (SBC-5) [µM]
1 | COC(=O)CC1CCC[C@@]2(C)C1CC[C@@H]2[C@H](C)CCCC(C)C (some centres not stated) | > 300 | 70
2 | COC(=O)/C=C1\CCC[C@@]2(C)C1CC[C@@H]2[C@H](C)CCCC(C)C (some centres not stated) | > 300 | 71
3 | CC(C)CCC[C@@H](C)[C@H]1CCC2/C(=C/C=C/C(=O)O)CCC[C@@]21C (some centres not stated) | 94 | 42

The next molecules have a lower IC50 [1] than those just listed; values first:

Row | IC50 [1] [µM] | IC50 (SBC-5) [µM] | Compound
4 | 7.7 | 47 | CC(C)CCC[C@@H](C)[C@H]1CCC2/C(=C/C(=O)O)CCC[C@@]21C (some centres not stated)
5 | 9 | > 100 | CC(C)CCC[C@@H](C)[C@H]1CCC2C(CCCC(=O)O)CCC[C@@]21C (some centres not stated)
6 | 32 | > 100 | CC(C)CCC[C@@H](C)[C@H]1CCC2C(CC(=O)O)CCC[C@@]21C (some centres not stated)
